These results are taken from patent US7235585B2 (priority 2002, dated 2007).

Series [1] deals with WiDr cells (a colon carcinoma cell line) engineered for stable expression of β-galactosidase (β-gal). Briefly: cells. Type of series: cell-based. Conditions: read-out: IC50 LacZ.
The conditions of series [2]: buffer; for T1/2 prodrug: pH 7.3.
Series [3] concerns WiDr cells (a colon carcinoma cell line) engineered for stable expression of stCPG2(Q)3. Nature of the series: cells. Particulars: for pIC50: read-out: IC50 stCPG2(Q)3. Type of series: cell-based.
The next series concerns the target CPG2 (Pseudomonas sp., UniProt P06621). Type of series: biochemical, Pseudomonas R16.
Series [4] relates to WiDr cells (a colon carcinoma cell line) engineered for stable expression of β-galactosidase (β-gal). Particulars: cited from earlier work.
Series [5] deals with WiDr cells (a colon carcinoma cell line) engineered for stable expression of stCPG2(Q)3. Conditions: cited from earlier work.

pIC50: −log10 of the molar value. Like-named read-outs stand apart in the source and are kept apart here.

Chain of CPG2 (P06621 23-415): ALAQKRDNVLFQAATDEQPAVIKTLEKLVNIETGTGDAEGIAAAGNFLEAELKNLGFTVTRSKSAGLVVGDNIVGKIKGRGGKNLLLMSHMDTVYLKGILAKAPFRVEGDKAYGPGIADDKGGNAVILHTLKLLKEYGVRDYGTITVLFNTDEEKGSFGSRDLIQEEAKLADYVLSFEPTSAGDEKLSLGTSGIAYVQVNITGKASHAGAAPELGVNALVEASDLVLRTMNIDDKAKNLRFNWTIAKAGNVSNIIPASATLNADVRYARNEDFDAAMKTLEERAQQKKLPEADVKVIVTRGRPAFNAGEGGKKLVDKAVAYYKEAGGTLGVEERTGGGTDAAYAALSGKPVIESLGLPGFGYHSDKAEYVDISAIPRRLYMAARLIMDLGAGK

As usually defined, the pIC50 is −log10 of the IC50, conventionally taken in molar units. As for `O=C(O)CCC(NC(=O)Oc1ccc(COC(=O)Nc2ccc(N(CCBr)CCBr)cc2)cc1)C(=O)O` (centres unmarked) [CP-11], the pIC50 in series [1] was 4.00. Besides, in series [2], the “T1/2 prodrug/T1/2 drug” value is 0.4 and the T1/2 prodrug turned out to be 0.9 min. For the same compound, in series [3], the “Degree of activation (fold)” value was 38.3 fold, the “differentials in the WiDr cell lines compared with CMDA” value (from here on “differentials in the WiDr cell lines”) is recorded as “better than those of CMDA” and the pIC50 was 5.59.

For the compound `O=C(O)CCC(NC(=O)Oc1ccc(COC(=O)Nc2ccccc2N(CCBr)CCBr)cc1)C(=O)O` (centres unmarked) [CP-10], the pIC50 in series [1] was 3.74. For the same compound, in series [2], the “T1/2 prodrug/T1/2 drug” value turned out to be 3.5 and the T1/2 prodrug is recorded as 3.47 min. Besides, in series [3], the “Degree of activation (fold)” value stood at 1.9 fold and the pIC50 is 4.02.

Take `CN(C(=O)OCc1ccc(NC(=O)NC(CCC(=O)O)C(=O)O)cc1)c1ccc(N(CCI)CCI)cc1` [Compound P-1, 4-{N-[4′-bis(2″-iodoethyl)amino-phenyl]-N-methyl-carbamoyl-oxymethyl}-phenyl-carbamoyl-L-glutamic acid]: the pIC50 in series [1] (Homo sapiens, WiDr) is 3.73. Besides, the “T1/2 prodrug/T1/2 drug” value in series [2] is 6.5. In series [3], the “Degree of activation (fold)” value came to 124.0 fold and the “differentials in the WiDr cell lines” value is listed as “better than those of CMDA”. Further, in series [3] (Homo sapiens, WiDr), the pIC50 was 5.82.

In the case of `CN(C(=O)OCc1ccc(NC(=O)NC(CCC(=O)O)C(=O)O)cc1)c1ccc(N(CCBr)CCBr)cc1` [Compound P-2, 4-{N-[4′-bis(2″-bromoethyl)amino-phenyl]-N-methyl-carbamoyl-oxymethyl}-phenyl-carbamoyl-L-glutamic acid], in series [1] (Homo sapiens, WiDr), the pIC50 was 3.48. Also, the “T1/2 prodrug/T1/2 drug” value in series [2] worked out at 1.0. In series [3], the “Degree of activation (fold)” value is 81.4 fold and the “differentials in the WiDr cell lines” value is “better than those of CMDA”. Also, in series [3] (Homo sapiens, WiDr), the pIC50 was 5.39.

As a reminder, the kcat is the maximal rate divided by the concentration of active sites. Regarding `CN(C(=O)OCc1ccc(NC(=O)NC(CCC(=O)O)C(=O)O)cc1)c1ccc(N(CCCl)CCCl)cc1` [Compound P-3, 4-{N-[4′-bis(2″-chloroethyl)amino-phenyl]-N-methyl-carbamoyl-oxymethyl}-phenyl-carbamoyl-L-glutamic acid], the pIC50 in series [1] (Homo sapiens, WiDr) was 4.40; in series [3] (Homo sapiens, WiDr), 5.60. In addition, the kcat at CPG2 turned out to be 5.50 s⁻¹. In addition, the “T1/2 prodrug/T1/2 drug” value in series [2] came to 20.9. The “Degree of activation (fold)” value in series [3] was found to be 15.9 fold.

With `O=C(O)CCC(NC(=O)Oc1ccc(COC(=O)Nc2ccccc2N(CCCl)CCCl)cc1)C(=O)O` (centres unmarked) [CP-12], the negative logarithm of the IC50 (pIC50) in series [1] was 4.42. Also, the kcat on CPG2 was determined as 4.27 s⁻¹. In series [2], the “T1/2 prodrug/T1/2 drug” value is 11.9 and the T1/2 prodrug is reported as 146.3 min. Moreover, in series [3], the “Degree of activation (fold)” value was 1.4 fold and the pIC50 is 4.55.

Take `CS(=O)(=O)OCCN(CCCl)c1ccccc1NC(=O)OCc1ccc(OC(=O)NC(CCC(=O)O)C(=O)O)cc1` (centres unmarked) [CP-14]: the pIC50 in series [1] was 3.83; in series [3], 4.55. In addition, in series [2], the T1/2 prodrug came out at 10.0 min. The “Degree of activation (fold)” value in series [3] is listed as 5.2 fold.

`O=C(O)CCC(NC(=O)Nc1ccc(COC(=O)Nc2ccccc2N(CCCl)CCCl)cc1)C(=O)O` (centres unmarked) [CP-5]: in series [1], the pIC50 is 4.68. Moreover, at CPG2, the kcat came out at 2.92 s⁻¹. In series [2], the “T1/2 prodrug/T1/2 drug” value is given as 13.9 and the T1/2 prodrug is 107.5 min. Also, in series [3], the “Degree of activation (fold)” value is recorded as 4.7 fold and the negative-log IC50 (pIC50) was 5.35.

Regarding `CS(=O)(=O)OCCN(CCOS(C)(=O)=O)c1ccccc1NC(=O)OCc1ccc(OC(=O)NC(CCC(=O)O)C(=O)O)cc1` (centres unmarked) [CP-7], in series [1], the pIC50 was 3.68. The T1/2 prodrug in series [2] was found to be 10.8 min. Also, in series [3], the “Degree of activation (fold)” value was 5.2 fold and the pIC50 was 4.40.

As for `O=C(O)CCC(NC(=O)Nc1ccc(COC(=O)Nc2ccccc2N(CCI)CCI)cc1)C(=O)O` (centres unmarked) [CP-1], the pIC50 in series [1] was 3.83. Besides, the T1/2 prodrug in series [2] is recorded as 2.7 min. Besides, in series [3], the “Degree of activation (fold)” value was determined as 49.7 fold, the “differential in the transfected WiDr cell line” value worked out at 50 fold, the “differentials in the WiDr cell lines” value was “better than those of CMDA” and the pIC50 was 5.52.

Consider `CS(=O)(=O)OCCN(CCCl)c1ccc(C(=O)N[C@@H](CCC(=O)O)C(=O)O)cc1` [CMDA, N-{4-[(2-chloroethyl)(2-mesyloxyethyl)amino]benzoyl}-L-glutamic acid], for which the figures for the pIC50 in series [4] and in series [5] were 2.49 and 4.00, respectively. For the same compound, the “Degree of activation (fold)” value in series [3] is 32.3 fold.

Turning to `O=C(O)CCC(NC(=O)Oc1ccc(COC(=O)Nc2ccc(N(CCI)CCI)cc2)cc1)C(=O)O` (centres unmarked) [CP-9], the pIC50 in series [1] is 4.27. Also, in series [2], the “T1/2 prodrug/T1/2 drug” value is recorded as 2.0 and the T1/2 prodrug came to 0.98 min. Moreover, in series [3], the “Degree of activation (fold)” value was found to be 42.5 fold, the “differentials in the WiDr cell lines” value is reported as “better than those of CMDA” and the pIC50 was 5.89.

Consider `CN(C(=O)OCc1ccc(OC(=O)NC(CCC(=O)O)C(=O)O)cc1)c1ccc(N(CCBr)CCBr)cc1` (centres unmarked) [CP-16], for which the pIC50 in series [1] is 4.57. In series [2], the “T1/2 prodrug/T1/2 drug” value came out at 1.0 and the T1/2 prodrug is given as 2.7 min. Besides, in series [3], the “Degree of activation (fold)” value turned out to be 7.5 fold and the pIC50 is 5.44.

For the compound `O=C(O)CCC(NC(=O)Nc1ccc(COC(=O)Nc2ccccc2N(CCBr)CCBr)cc1)C(=O)O` (centres unmarked) [CP-3], the pIC50 in series [1] is 3.93. Besides, in series [2], the “T1/2 prodrug/T1/2 drug” value came out at 3.5 and the T1/2 prodrug worked out at 3.0 min. Moreover, in series [3], the “Degree of activation (fold)” value is 24.9 fold, the “differential in the transfected WiDr cell line” value worked out at 25 fold and the pIC50 was 5.33.

Take `CN(C(=O)OCc1ccc(OC(=O)NC(CCC(=O)O)C(=O)O)cc1)c1ccc(N(CCCl)CCCl)cc1` (centres unmarked) [CP-17]: the negative-log IC50 (pIC50) in series [1] was 4.71. Moreover, the kcat at CPG2 amounted to 4.32 s⁻¹. For the same compound, in series [2], the “T1/2 prodrug/T1/2 drug” value is 20.6 and the T1/2 prodrug is 173.6 min. Moreover, in series [3], the “Degree of activation (fold)” value was determined as 11.5 fold and the pIC50 is 5.77.

As for `O=C(O)CCC(NC(=O)Nc1ccc(COC(=O)Nc2ccc(N(CCBr)CCBr)cc2)cc1)C(=O)O` (centres unmarked) [CP-4], the negative-log IC50 (pIC50) in series [1] was 3.69. Also, in series [2], the “T1/2 prodrug/T1/2 drug” value is on record as 0.4 and the T1/2 prodrug is on record as 0.85 min. For the same compound, in series [3], the “Degree of activation (fold)” value stood at 66.6 fold, the “differentials in the WiDr cell lines” value is “better than those of CMDA” and the pIC50 is 5.51.

With `O=C(O)CCC(NC(=O)Oc1ccc(COC(=O)Nc2ccc(N(CCCl)CCCl)cc2)cc1)C(=O)O` (centres unmarked) [CP-13], the kcat at CPG2 is under 10 s⁻¹.

On to `O=C(O)CCC(NC(=O)Nc1ccc(COC(=O)Nc2ccc(N(CCI)CCI)cc2)cc1)C(=O)O` (centres unmarked) [CP-2], for which the negative logarithm of the IC50 (pIC50) in series [1] is 3.75. For the same compound, in series [2], the “T1/2 prodrug/T1/2 drug” value was determined as 1.9 and the T1/2 prodrug was 0.97 min. In addition, in series [3], the “Degree of activation (fold)” value came out at 101.6 fold, the “differentials in the WiDr cell lines” value is “better than those of CMDA” and the pIC50 was 5.74.

Consider `O=C(O)CCC(NC(=O)Nc1ccc(COC(=O)Nc2ccc(N(CCCl)CCCl)cc2)cc1)C(=O)O` (centres unmarked) [CP-6], for which the catalytic constant (kcat) on CPG2 is 10 to 50 s⁻¹.

For the compound `CN(C(=O)OCc1ccc(OC(=O)NC(CCC(=O)O)C(=O)O)cc1)c1ccc(N(CCI)CCI)cc1` (centres unmarked) [CP-15], the negative logarithm of the IC50 (pIC50) in series [1] is 4.67. Further, in series [2], the “T1/2 prodrug/T1/2 drug” value is 7.7 and the T1/2 prodrug was found to be 4.6 min. In series [3], the “Degree of activation (fold)” value is recorded as 8.3 fold and the pIC50 was 5.59.

Regarding `O=C(O)CCC(NC(=O)Oc1ccc(COC(=O)Nc2ccccc2N(CCI)CCI)cc1)C(=O)O` (centres unmarked) [CP-8], the negative-log IC50 (pIC50) is 4.13 in series [1] and 4.72 in series [3]. In series [2], the T1/2 prodrug is 2.1 min. The “Degree of activation (fold)” value in series [3] amounted to 3.9 fold.
